Measured values: ChEMBL document CHEMBL1149032, “Two new cytotoxic peroxide-containing acids from a New Guinea sponge, Callyspongia sp” (1994)
Converted amounts (≈) assume the structure as drawn.

Tested on: P388
Assay: Cytotoxicity against mouse P388 cells
Format: functional
Conditions: read-out: ED50 (the source's name)

Row | SMILES | EC50 [mg/L]
1 | C/C=C1/C[C@](CC)(CCCC)OO[C@H]1CC(=O)O | 5.5 (≈ 21.5 µM)
2 | CCCCC1(CC)C[C@@H](CC)[C@H](CC(=O)O)OO1 (some centres not stated) | 2.6 (≈ 10.1 µM)
